The IC50 is the concentration that inhibits the measured activity by half. Low readings indicate greater potency in that assay, high ones weaker potency in that assay. For orientation: Ki means a measure of affinity in units of concentration, obtained from inhibition or displacement.

Here are results for 23 compounds from article PMC9372051, “Biological evaluation, molecular modeling and dynamics simulation of phenanthrenes isolated from Bletilla striata as butyrylcholinesterase inhibitors” (Scientific Reports, 2022).

The target of experiment [1] is BChE from equine serum (Equus caballus, UniProt P81908). The experiment is described as follows: biochemical. The class given is biochemical. The following applies: for inhibition at 25 µg/mL: read-out: % of inhibition at 25 μg/mL BChE; for BChE inhibition described in words: structure-activity discussion.
Chain of BChE from equine serum (P81908 whole entry): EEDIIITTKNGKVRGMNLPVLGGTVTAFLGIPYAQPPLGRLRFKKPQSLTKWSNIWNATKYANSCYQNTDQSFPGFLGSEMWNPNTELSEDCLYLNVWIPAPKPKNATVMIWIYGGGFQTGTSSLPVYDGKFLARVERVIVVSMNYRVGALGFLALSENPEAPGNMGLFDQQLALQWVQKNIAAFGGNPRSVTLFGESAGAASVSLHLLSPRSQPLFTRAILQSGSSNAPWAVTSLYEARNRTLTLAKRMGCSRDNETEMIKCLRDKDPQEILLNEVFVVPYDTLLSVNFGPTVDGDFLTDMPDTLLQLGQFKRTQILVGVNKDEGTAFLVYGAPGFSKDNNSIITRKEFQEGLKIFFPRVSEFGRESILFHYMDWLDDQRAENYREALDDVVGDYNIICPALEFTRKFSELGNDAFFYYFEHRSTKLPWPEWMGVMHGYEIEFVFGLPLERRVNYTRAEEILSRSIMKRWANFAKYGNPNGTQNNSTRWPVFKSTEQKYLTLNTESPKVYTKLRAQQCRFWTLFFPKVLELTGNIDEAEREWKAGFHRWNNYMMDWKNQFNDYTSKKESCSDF
Experiment [2] concerns the target AChE from electric eel (Electrophorus electricus, UniProt O42275). The experiment is described as follows: biochemical. The note with it: read-out: % of inhibition at 25 μg/mL AChE.
The target of experiment [3] is BChE (Equus caballus, UniProt P81908). The experiment is described as follows: Kinetic characterization of BChE inhibition (Lineweaver–Burk plots, secondary plots). The following applies: for Mode of BChE inhibition: Lineweaver–Burk plots; for Ki: estimated by secondary plots of Lineweaver–Burk plots, substrate BTCI. Type of experiment: biochemical, equine. How it is done:
[…]. Five increasing concentrations of BTCI as a substrate in the presence of three different concentrations of compound were used in the kinetic measurement. The concentrations of the enzyme and DNTB used in the determination are 0.226 U/mL and 3 mM respectively. The inhibition constants (Ki) of the inhibitors were determined by the secondary plots which constructed using the slopes of the Lineweaver–Burk plots.

Where two headings read alike, the source gives them in different places. A value given as a limit tells only on which side of the number the result lay.

Chain of AChE from electric eel (O42275 24-633): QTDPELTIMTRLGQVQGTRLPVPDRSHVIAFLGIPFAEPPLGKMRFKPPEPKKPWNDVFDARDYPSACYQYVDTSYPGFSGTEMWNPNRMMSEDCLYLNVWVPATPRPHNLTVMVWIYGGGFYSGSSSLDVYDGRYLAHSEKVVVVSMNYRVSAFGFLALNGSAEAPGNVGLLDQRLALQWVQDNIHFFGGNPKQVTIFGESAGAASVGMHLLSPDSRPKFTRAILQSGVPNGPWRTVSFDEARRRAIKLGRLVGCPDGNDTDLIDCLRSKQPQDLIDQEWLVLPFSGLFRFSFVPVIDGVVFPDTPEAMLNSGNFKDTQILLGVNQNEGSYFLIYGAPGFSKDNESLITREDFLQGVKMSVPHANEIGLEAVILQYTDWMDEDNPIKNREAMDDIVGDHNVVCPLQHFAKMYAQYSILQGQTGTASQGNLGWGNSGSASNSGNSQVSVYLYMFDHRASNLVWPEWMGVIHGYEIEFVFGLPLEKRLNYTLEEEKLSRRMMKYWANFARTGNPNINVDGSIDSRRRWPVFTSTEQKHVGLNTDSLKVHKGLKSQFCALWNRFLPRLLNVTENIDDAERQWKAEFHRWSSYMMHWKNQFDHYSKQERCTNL
Chain of BChE (P81908 whole entry): as the sequence (P81908 whole entry) above

For `COc1cccc(CCc2cc(OC)cc(O)c2Cc2ccc(O)cc2)c1` [Compound 1, gymconopin D], in experiment [1], the Selectivity ratio was > 1.7 and the inhibition at 25 µg/mL was determined as 66.2 ± 3.4%. The compound further had an IC50 in experiment [1] (mean ± SD of three experiments) of 40.5 ± 5.6 µM. In experiment [2], the inhibition at 25 µg/mL was determined as 48.1 ± 6.3%.
Turning to `COc1cccc(CCc2cc(O)cc(OC)c2Cc2ccc(O)cc2)c1` [Compound 2, bulbocol], in experiment [1], the Selectivity ratio was > 2.1 and the inhibition at 25 µg/mL came to 67.7 ± 0.3%. In addition, half-maximal inhibition in experiment [1] (mean ± SD of three experiments) (IC50) required 33.5 ± 3.7 µM. In addition, the inhibition at 25 µg/mL in experiment [2] was 16.3 ± 3.8%.
In experiment [1] (mean ± SD of three experiments), `COc1cc(O)cc(CCc2cccc(O)c2)c1Cc1ccc(O)cc1` [Compound 3, 3′,5-dihydroxy-2-(4-hydroxybenzyl)-3-methoxybibenzyl] came in with an IC50 of 80.3 ± 5.2 µM. The inhibition at 25 µg/mL was found to be 51.3 ± 2% in experiment [1] and 5 ± 1.5% in experiment [2].
In the case of `COc1cc(O)c(Cc2ccc(O)cc2)c(CCc2cccc(O)c2)c1` [Compound 4, isoarundinin II], the values for the inhibition at 25 µg/mL in experiment [1] and in experiment [2] were 39.3 ± 2.3% and 0.9 ± 0.8%, respectively.
With `COc1cc(CCc2cccc(O)c2)cc(O)c1Cc1ccc(O)cc1` [Compound 5, 3,3′-dihydroxy-4-(4-hydroxybenzyl)-5-methoxybibenzyl], the inhibition at 25 µg/mL was found to be 22.6 ± 2.1% in experiment [1] and 2.6 ± 2.8% in experiment [2].
For the compound `COc1ccc2c(ccc3c(Cc4ccc(O)cc4)c(O)cc(OC)c32)c1O` [Compound 6, 1-(p-hydroxybenzyl)-4,7-dimethoxyphenanthrene-2,8-diol], in experiment [1], the Selectivity ratio is on record as > 9.5 and the inhibition at 25 µg/mL was determined as 85.2 ± 2.9%. In experiment [1] (mean ± SD of three experiments), this compound showed an IC50 of 6.4 ± 0.2 µM. For the same compound, in experiment [3], the “Mode of BChE inhibition” value is recorded as “mixed-type” and the inhibitory constant (Ki) is 14 µM. Moreover, the inhibition at 25 µg/mL in experiment [2] came to 20.4 ± 4.5%.
In the case of `COc1c(Cc2ccc(O)cc2)c(O)cc2c1-c1ccc(O)cc1CC2` [Compound 7, 3-(4-hydroxybenzyl)-4-methoxy-9,10-dihydrophenanthrene-2,7-diol], the Selectivity ratio in experiment [1] is given as > 2.1. In addition, half-maximal inhibition in experiment [1] (mean ± SD of three experiments) (IC50) required 34 ± 1.4 µM. For the same compound, the inhibition at 25 µg/mL in experiment [1] is 65.7 ± 0.7%; in experiment [2], 9.6 ± 2.6%.
On to `COc1c(O)cc2ccc3c(Cc4ccc(O)cc4)c(O)ccc3c2c1OC` [Compound 8, bleformin A], for which, in experiment [1], the Selectivity ratio was > 13.1 and the inhibition at 25 µg/mL came out at 70 ± 1%. In experiment [1] (mean ± SD of three experiments), this compound yielded a half-maximal inhibitory concentration (IC50) of 5.2 ± 0.4 µM. In experiment [3], the “Mode of BChE inhibition” value is listed as “mixed-type” and the inhibitory constant (Ki) is 4.7 µM. Further, in experiment [2], the inhibition at 25 µg/mL amounted to 18.5 ± 1.7%.
As for `COc1cc(O)c2c(c1Cc1ccc(O)cc1)CCc1cc(O)ccc1-2` [Compound 9, shancidin], in experiment [1], the Selectivity ratio is > 4.3 and the inhibition at 25 µg/mL turned out to be 72.8 ± 3.4%. In experiment [1] (mean ± SD of three experiments), this compound yielded an IC50 of 16.7 ± 2 µM. The inhibition at 25 µg/mL in experiment [2] stood at 15.2 ± 3.6%.
On to `COc1cc(O)c(Cc2ccc(O)cc2)c2ccc3cc(O)ccc3c12` [Compound 10, 1-[(4-hydroxyphenyl)methyl]-4-methoxy-2,7-phenanthrenediol], for which, in experiment [1], the Selectivity ratio is listed as > 34.7 and the inhibition at 25 µg/mL is 96.6 ± 1.2%. In addition, inhibition in experiment [1] (mean ± SD of three experiments) was half-maximal at 2.1 ± 0.3 µM (IC50). In addition, in experiment [3], the “Mode of BChE inhibition” value is recorded as “non-competitive” and the Ki is 5.4 µM. Moreover, the inhibition at 25 µg/mL in experiment [2] amounted to 19.1 ± 3.8%.
`COc1c(Cc2ccc(O)cc2)c(O)c(Cc2ccc(O)cc2)c2c1-c1ccc(O)cc1CC2` [Compound 11, 2,7-dihydroxy-1,3-bi(p-hydroxybenzyl)-4-methoxy-9,10-dihydrophenanthrene]: in experiment [1], the Selectivity ratio was > 1.2 and the inhibition at 25 µg/mL worked out at 53.1 ± 1.2%. This compound showed an IC50 in experiment [1] (mean ± SD of three experiments) of 44.6 ± 4.1 µM. The inhibition at 25 µg/mL in experiment [2] was found to be 20.1 ± 3.5%.
In the case of `COc1cc(O)c(Cc2ccc(O)cc2)c2ccc3c(Cc4ccc(O)cc4)c(O)ccc3c12` [Compound 12, 1,8-bis(4-hydroxybenzyl)-4-methoxyphenanthrene-2,7-diol], in experiment [1], the Selectivity ratio is reported as > 23.1 and the inhibition at 25 µg/mL was 95.4 ± 0.3%. The same compound had a 50% inhibitory concentration (IC50) in experiment [1] (mean ± SD of three experiments) of 2.3 ± 0.4 µM. Also, in experiment [3], the “Mode of BChE inhibition” value is “non-competitive” and the Ki was 6.6 µM. The inhibition at 25 µg/mL in experiment [2] was found to be 16.1 ± 5%.
For `COc1c(O)c(Cc2ccc(O)cc2)c2ccc3cc(O)ccc3c2c1OC` [Compound 13, bleformin B], in experiment [1], the Selectivity ratio was > 4.0 and the inhibition at 25 µg/mL was determined as 75.7 ± 1.1%. Besides, the half-maximal inhibitory concentration (IC50) in experiment [1] (mean ± SD of three experiments) came to 16.7 ± 2.4 µM. Also, the inhibition at 25 µg/mL in experiment [2] came to 9.9 ± 4.7%.
As for `COc1cc(O)cc2c1-c1ccc(Oc3c(O)cc(OC)c4c3ccc3cc(O)ccc34)cc1CC2` [Compound 14, blestrin D], in experiment [1], the Selectivity ratio was > 6.8. Moreover, in experiment [1] (25 μg/mL final concentration, mean ± SD of three experiments), the inhibition at 25 µg/mL turned out to be 69 ± 2.5%. The IC50 in experiment [1] (mean ± SD of three experiments) amounted to 8.1 ± 0.5 µM. Also, in experiment [3], the “Mode of BChE inhibition” value is “mixed-type” and the inhibitory constant (Ki) was 10.9 µM. Also, the inhibition at 25 µg/mL in experiment [2] worked out at 6.8 ± 1.6%.
Consider `COc1cc(Oc2c(O)cc(OC)c3c2CCc2cc(O)ccc2-3)cc2c1-c1ccc(O)cc1CC2` [Compound 15, blestrin A], for which, in experiment [1], the Selectivity ratio was > 2.9 and the inhibition at 25 µg/mL was 64 ± 2.6%. The same compound showed an IC50 in experiment [1] (mean ± SD of three experiments) of 17.9 ± 4.7 µM. In addition, in experiment [2], the inhibition at 25 µg/mL was found to be 8.4 ± 3.1%.
For `COc1cc(Oc2c(O)cc(OC)c3c2ccc2cc(O)ccc23)cc2c1-c1ccc(O)cc1CC2` [Compound 16, blestrin C], in experiment [1], the Selectivity ratio is reported as > 4.3 and the inhibition at 25 µg/mL was 64.3 ± 2.4%. Also, the IC50 in experiment [1] (mean ± SD of three experiments) is 12.1 ± 3.4 µM. Besides, in experiment [2], the inhibition at 25 µg/mL is 4.9 ± 3.2%.
On to `COc1cc(C2COc3cc(OC)c4c(c3C2O)CCc2cc(O)ccc2-4)ccc1O` (stereo not shown) [Compound 17, shanciol F], for which the inhibition at 25 µg/mL in experiment [1] worked out at 21.8 ± 3.1%; in experiment [2] it was 5.5 ± 1.8%.
The corresponding values for `COc1cc([C@@H]2Oc3cc4c(cc3[C@H]2CO)-c2c(cc(O)cc2OC)CC4)ccc1O` [Compound 18, bletilol D] are 31.6 ± 2.8% and 5.7 ± 2.8%.
In the case of `COc1cc(C2Oc3cc4c(c(OC)c3C2CO)-c2ccc(O)cc2CC4)ccc1O` (stereo not shown) [Compound 19, 9-(4′-hydroxy-3′-methoxyphenyl)-10-(hydroxymethyl)-11-methoxy-5,6,9, 10-tetrahydrophenanthro[2,3-b] furan-3-ol], in experiment [1], the Selectivity ratio is on record as > 1.7 and the inhibition at 25 µg/mL was determined as 61.2 ± 1.3%. Also, in experiment [1] (mean ± SD of three experiments), 35.8 ± 9.2 µM corresponded to half-maximal inhibition (IC50). The inhibition at 25 µg/mL in experiment [2] is 3.3 ± 1.8%.
As to `COc1cc([C@@H]2Oc3cc(OC)c4c(c3[C@H]2Cc2c(O)cc(OC)c3c2CCc2cc(O)ccc2-3)CCc2cc(O)ccc2-4)ccc1O` [Compound 20, Bletilol E], in experiment [1], the inhibition at 25 µg/mL amounted to 8 ± 2.4% and the “BChE inhibition described in words” value is “weak inhibition potency”. Also, the inhibition at 25 µg/mL in experiment [2] was determined as 5.1 ± 4%.
As to `COc1cc(O)cc(/C=C\c2cccc(O)c2)c1` [Compound 21, pholidotol D], the values for the inhibition at 25 µg/mL in experiment [1] and in experiment [2] were 29.1 ± 1.3% and 5.2 ± 3.2%, respectively.
With `COc1cc(O)c(-c2c(O)cc(OC)c3c2CCc2cc(O)ccc2-3)c2c1-c1ccc(O)cc1CC2` [Compound 22, flavanthrin], in experiment [1], the Selectivity ratio is reported as > 1.2, the inhibition at 25 µg/mL was 56.7 ± 2% and the “BChE inhibition described in words” value is on record as “moderate efficacy”. For the same compound, in experiment [1] (mean ± SD of three experiments), 42.2 ± 5.1 µM corresponded to half-maximal inhibition (IC50). Moreover, the inhibition at 25 µg/mL in experiment [2] came to 13.3 ± 2.9%.
For `COc1ccc2c3c1O[C@H]1C[C@@H](O)C=C[C@@]31CCN(C)C2` [Galantamine, reference compound], in experiment [1], the inhibition at 25 µg/mL is 64.2 ± 0.6%.
